Assay results published in US7030102B1, “Highly bioavailable coenzyme Q-10 cyclodextrin complex” (BioActives, LLC, priority 2003, dated 2006).

Assays:
Caco2 cells = test: In vitro uptake of CoQ-10 in Caco2 cells; format: in vitro ADME, human; details: 100 μg CoQ-10/flask, sum of reduced and oxidized forms, control = endogenous level
Procedure: The cellular uptake of the CoQ-10 from the cyclodextrin complexes was determined in vitro in model cell culture systems. For example, the uptake was determined using an in vitro Caco2 intestinal cell culture model indicative of in vivo intestinal absorption. This cell line has been used as a model system to examine the selective characteristics of intestinal absorption of compounds, such as vitamin E (Traber et al., 1990), retinol, beta lactoglobulin, palmitic acid (Puyol et al., 1995), carotenoids (Garrett et al., 1999), and polyamines (Turchanowa et al., 2001). […] CoQ-10 incorporated into mixed micelles was used for comparison.
The uptake of CoQ-10 from the cyclodextrin complex dried by different methods was compared to commercially available CoQ-10 powder (99% pure, used in hard capsules) and CoQ-10 powder incorporated into mixed micelles, simulating the digestive process.
The mixed micelles were prepared by the method of Garrett et al. (1999) using sodium taurocholate (bile salt), mono-acylglycerol, oleic acid, phosphatidyl choline, lysophosphatidylcholine, and CoQ-10 in phosphate buffered saline (PBS). The CoQ-10/cyclodextrin complexes were dispersed in PBS. The stock solutions contained 30 mg CoQ-10/10 ml.
The cellular uptake of CoQ-10 as a function of media concentration and exposure time was determined based on the method of Garrett et al. (1999). Caco-2 (ATCC, Rockville, Md.) cells were maintained in high glucose DMEM with 15 mM HEPES and 10% heat inactivated fetal bovine serum, nonessential amino acids, glutamine, and pyruvate in a humidified atmosphere at 5% CO2 and 37° C. The cells were allowed to reach confluency (5–6 days after subculture) and differentiate (14 days) in 25 cm^2 flasks before the start of the experiment.
The stock test samples were diluted in the culture medium for the experiment. The monolayers were washed with PBS before adding the test samples at known CoQ-10 concentration (100 μg/flask). […] The cultures were incubated as before and the CoQ-10 uptake was terminated at indicated times. […] The chromatograms were monitored at 275 nm.

[1] = tested on: Caco2 intestinal cell model; details: Totterman et al. 1997, Ono et al. 2001; cited from earlier work

Row | Cellular Total CoQ-10 (Treated/Control) (Caco2 cells; 5 hr incubation) | Cellular Total CoQ-10 (Treated/Control) (Caco2 cells; 10 hr incubation) | Cellular Total CoQ-10 (Treated/Control) (Caco2 cells; 24 hr incubation) | Compound | Cytotoxicity / effect on Caco2 cells [1]
1 | 1.0 | 1.0 | 1.0 | COC1=C(OC)C(=O)C(C/C=C(\C)CC/C=C(\C)CC/C=C(\C)CC/C=C(\C)CC/C=C(\C)CC/C=C(\C)CC/C=C(\C)CC/C=C(\C)CC/C=C(\C)CCC=C(C)C)=C(C)C1=O [CoQ-10 Powder, Coenzyme Q-10] | 
2 |  |  |  | OC[C@H]1O[C@@H]2O[C@H]3[C@H](O)[C@@H](O)[C@@H](O[C@H]4[C@H](O)[C@@H](O)[C@@H](O[C@H]5[C@H](O)[C@@H](O)[C@@H](O[C@H]6[C@H](O)[C@@H](O)[C@@H](O[C@H]7[C@H](O)[C@@H](O)[C@@H](O[C@H]8[C@H](O)[C@@H](O)[C@@H](O[C@H]9[C@H](O)[C@@H](O)[C@@H](O[C@H]1[C@H](O)[C@H]2O)O[C@@H]9CO)O[C@@H]8CO)O[C@@H]7CO)O[C@@H]6CO)O[C@@H]5CO)O[C@@H]4CO)O[C@@H]3CO [γ-Cyclodextrin] | least effect even at a relatively high concentration of 150 mM
3 |  |  |  | dimethyl β-cyclodextrin | dose dependent cytotoxicity
4 |  |  |  | maltosyl-α-cyclodextrin | less toxic as compared to α-cyclodextrin
